Measured values: ChEMBL document CHEMBL3885881, “DrugMatrix”

Species: Rattus norvegicus
Assay: DrugMatrix - Regimen: Daily Repeat
Format: toxicity, organism-based, Sprague-Dawley
Design: regimen Daily Repeat, gender Male, age 6-8 weeks
Settings: in vivo, iv, vehicle 100 % SALINE; for ABSOLUTE BASOPHIL / ABSOLUTE EOSINOPHIL / ABSOLUTE LYMPHOCYTE / ABSOLUTE MONOCYTE / ABSOLUTE SEGMENTED NEUTROPHIL / BASOPHIL / EOSINOPHIL / ERYTHROCYTE COUNT / HEMATOCRIT / HEMOGLOBIN / LEUKOCYTE COUNT / LYMPHOCYTE / MEAN CORPUSCULAR HEMOGLOBIN / MEAN CORPUSCULAR HEMOGLOBIN CONCENTRATION / MEAN CORPUSCULAR VOLUME / MONOCYTE / NEUTROPHIL / NUCLEATED RED BLOOD CELLS / PLATELET COUNT: tissue Blood; for ALANINE AMINOTRANSFERASE / ALBUMIN / ALKALINE PHOSPHATASE / ASPARTATE AMINOTRANSFERASE / BLOOD UREA NITROGEN / CARBON DIOXIDE / CHLORIDE / CHOLESTEROL / CREATINE PHOSPHOKINASE / CREATININE / GLUCOSE / LACTATE DEHYDROGENASE / LIPASE / PHOSPHORUS / POTASSIUM / SODIUM / TOTAL BILIRUBIN / TOTAL PROTEIN / URIC ACID: tissue Plasma
[1] = 0 mg/kg, 72 h, dose level Control, time 3 day
[2] = 0 mg/kg, 120 h, dose level Control, time 5 day
[3] = 0.05 mg/kg, 72 h, dose level Low, time 3 day
[4] = 0.05 mg/kg, 120 h, dose level Low, time 5 day

Question: What does the source list for `CC[C@]1(O)C[C@H]2CN(CCc3c([nH]c4ccccc34)[C@@](C(=O)OC)(c3cc4c(cc3OC)N(C=O)[C@H]3[C@@](O)(C(=O)OC)[C@H](OC(C)=O)[C@]5(CC)C=CCN6CC[C@]43[C@@H]65)C2)C1` [VINCRISTINE]?
Answer: ABSOLUTE BASOPHIL [1]: 0 CELLS/uL; ABSOLUTE EOSINOPHIL [1]: 0 CELLS/uL; ABSOLUTE LYMPHOCYTE [1]: 7637.67 CELLS/uL; ABSOLUTE MONOCYTE [1]: 67.83 CELLS/uL; ABSOLUTE SEGMENTED NEUTROPHIL [1]: 661.17 CELLS/uL; BASOPHIL [1]: 0%; EOSINOPHIL [1]: 0%; ERYTHROCYTE COUNT [1]: 5.38 x10E6/uL; HEMATOCRIT [1]: 33.67%; HEMOGLOBIN [1]: 12.88 G/DL; LEUKOCYTE COUNT [1]: 8.37 x10E3/uL; LYMPHOCYTE [1]: 91.17%; MEAN CORPUSCULAR HEMOGLOBIN [1]: 23.95 pg; MEAN CORPUSCULAR HEMOGLOBIN CONCENTRATION [1]: 38.23 G/DL; MEAN CORPUSCULAR VOLUME [1]: 62.6 fL; MONOCYTE [1]: 0.83%; NEUTROPHIL [1]: 8%; NUCLEATED RED BLOOD CELLS [1]: 0.17 /100WBC; PLATELET COUNT [1]: 865 x10E3/uL; ALANINE AMINOTRANSFERASE [1]: 51.67 u/L; ALBUMIN [1]: 3.97 G/DL; ALKALINE PHOSPHATASE [1]: 351.17 u/L; ASPARTATE AMINOTRANSFERASE [1]: 82.33 u/L; BLOOD UREA NITROGEN [1]: 15.17 mg/dL; CARBON DIOXIDE [1]: 34.5 mmol/L; CHLORIDE [1]: 100 MEQ/L; CHOLESTEROL [1]: 80.33 mg/dL; CREATINE PHOSPHOKINASE [1]: 316.5 u/L; CREATININE [1]: 0.17 mg/dL; GLUCOSE [1]: 149.17 mg/dL; LACTATE DEHYDROGENASE [1]: 105.67 u/L; LIPASE [1]: 9.5 u/L; PHOSPHORUS [1]: 10.87 mg/dL; POTASSIUM [1]: 5.47 MEQ/L; SODIUM [1]: 144.2 MEQ/L; TOTAL BILIRUBIN [1]: 0.2 mg/dL; TOTAL PROTEIN [1]: 5.83 G/DL; URIC ACID [1]: 0.83 mg/dL; ABSOLUTE BASOPHIL [2]: 0 CELLS/uL; ABSOLUTE EOSINOPHIL [2]: 0 CELLS/uL; ABSOLUTE LYMPHOCYTE [2]: 6333.5 CELLS/uL; ABSOLUTE MONOCYTE [2]: 38.83 CELLS/uL; ABSOLUTE SEGMENTED NEUTROPHIL [2]: 661 CELLS/uL; BASOPHIL [2]: 0%; EOSINOPHIL [2]: 0%; ERYTHROCYTE COUNT [2]: 5.44 x10E6/uL; HEMATOCRIT [2]: 34.17%; HEMOGLOBIN [2]: 13.22 G/DL; LEUKOCYTE COUNT [2]: 7.03 x10E3/uL; LYMPHOCYTE [2]: 90.17%; MEAN CORPUSCULAR HEMOGLOBIN [2]: 24.38 pg; MEAN CORPUSCULAR HEMOGLOBIN CONCENTRATION [2]: 38.7 G/DL; MEAN CORPUSCULAR VOLUME [2]: 62.95 fL; MONOCYTE [2]: 0.5%; NEUTROPHIL [2]: 9.33%; NUCLEATED RED BLOOD CELLS [2]: 0 /100WBC; PLATELET COUNT [2]: 924.33 x10E3/uL; ALANINE AMINOTRANSFERASE [2]: 52.5 u/L; ALBUMIN [2]: 3.97 G/DL; ALKALINE PHOSPHATASE [2]: 364.83 u/L; ASPARTATE AMINOTRANSFERASE [2]: 82.5 u/L; BLOOD UREA NITROGEN [2]: 17 mg/dL; CARBON DIOXIDE [2]: 32.33 mmol/L; CHLORIDE [2]: 99.6 MEQ/L; CHOLESTEROL [2]: 75.83 mg/dL; CREATINE PHOSPHOKINASE [2]: 419 u/L; CREATININE [2]: 0.21 mg/dL; GLUCOSE [2]: 155 mg/dL; LACTATE DEHYDROGENASE [2]: 111.5 u/L; LIPASE [2]: 11.33 u/L; PHOSPHORUS [2]: 10.32 mg/dL; POTASSIUM [2]: 5.37 MEQ/L; SODIUM [2]: 144.64 MEQ/L; TOTAL BILIRUBIN [2]: 0.18 mg/dL; TOTAL PROTEIN [2]: 5.98 G/DL; URIC ACID [2]: 0.62 mg/dL; ABSOLUTE BASOPHIL [3]: 0 CELLS/uL; ABSOLUTE EOSINOPHIL [3]: 50 CELLS/uL; ABSOLUTE LYMPHOCYTE [3]: 6489 CELLS/uL; ABSOLUTE MONOCYTE [3]: 75.67 CELLS/uL; ABSOLUTE SEGMENTED NEUTROPHIL [3]: 285.33 CELLS/uL; BASOPHIL [3]: 0%; EOSINOPHIL [3]: 0.67%; ERYTHROCYTE COUNT [3]: 5.18 x10E6/uL; HEMATOCRIT [3]: 30.77%; HEMOGLOBIN [3]: 12.07 G/DL; LEUKOCYTE COUNT [3]: 6.9 x10E3/uL; LYMPHOCYTE [3]: 94.33%; MEAN CORPUSCULAR HEMOGLOBIN [3]: 23.3 pg; MEAN CORPUSCULAR HEMOGLOBIN CONCENTRATION [3]: 39.2 G/DL; MEAN CORPUSCULAR VOLUME [3]: 59.47 fL; MONOCYTE [3]: 1%; NEUTROPHIL [3]: 4%; NUCLEATED RED BLOOD CELLS [3]: 0.33 /100WBC; PLATELET COUNT [3]: 1561 x10E3/uL; ALANINE AMINOTRANSFERASE [3]: 52.67 u/L; ALBUMIN [3]: 4.03 G/DL; ALKALINE PHOSPHATASE [3]: 301.33 u/L; ASPARTATE AMINOTRANSFERASE [3]: 100 u/L; BLOOD UREA NITROGEN [3]: 13.67 mg/dL; CARBON DIOXIDE [3]: 35.67 mmol/L; CHLORIDE [3]: 98 MEQ/L; CHOLESTEROL [3]: 80.67 mg/dL; CREATINE PHOSPHOKINASE [3]: 355.67 u/L; CREATININE [3]: 0.15 mg/dL; GLUCOSE [3]: 138.33 mg/dL; LACTATE DEHYDROGENASE [3]: 108.33 u/L; LIPASE [3]: 9 u/L; PHOSPHORUS [3]: 10.47 mg/dL; POTASSIUM [3]: 5.91 MEQ/L; SODIUM [3]: 142.8 MEQ/L; TOTAL BILIRUBIN [3]: 0.17 mg/dL; TOTAL PROTEIN [3]: 6 G/DL; URIC ACID [3]: 0.5 mg/dL; ABSOLUTE BASOPHIL [4]: 0 CELLS/uL; ABSOLUTE EOSINOPHIL [4]: 15.67 CELLS/uL; ABSOLUTE LYMPHOCYTE [4]: 5856.67 CELLS/uL; ABSOLUTE MONOCYTE [4]: 77.33 CELLS/uL; ABSOLUTE SEGMENTED NEUTROPHIL [4]: 217 CELLS/uL; BASOPHIL [4]: 0%; EOSINOPHIL [4]: 0.33%; ERYTHROCYTE COUNT [4]: 4.27 x10E6/uL; HEMATOCRIT [4]: 27.3%; HEMOGLOBIN [4]: 10.7 G/DL; LEUKOCYTE COUNT [4]: 6.17 x10E3/uL; LYMPHOCYTE [4]: 94%; MEAN CORPUSCULAR HEMOGLOBIN [4]: 25.1 pg; MEAN CORPUSCULAR HEMOGLOBIN CONCENTRATION [4]: 39.17 G/DL; MEAN CORPUSCULAR VOLUME [4]: 64.03 fL; MONOCYTE [4]: 1.33%; NEUTROPHIL [4]: 4.33%; NUCLEATED RED BLOOD CELLS [4]: 0 /100WBC; PLATELET COUNT [4]: 1370.67 x10E3/uL; ALANINE AMINOTRANSFERASE [4]: 42 u/L; ALBUMIN [4]: 3.8 G/DL; ALKALINE PHOSPHATASE [4]: 313 u/L; ASPARTATE AMINOTRANSFERASE [4]: 132.33 u/L; BLOOD UREA NITROGEN [4]: 18.67 mg/dL; CARBON DIOXIDE [4]: 29.67 mmol/L; CHLORIDE [4]: 99.67 MEQ/L; CHOLESTEROL [4]: 65 mg/dL; CREATINE PHOSPHOKINASE [4]: 254 u/L; CREATININE [4]: 0.18 mg/dL; GLUCOSE [4]: 187.33 mg/dL; LACTATE DEHYDROGENASE [4]: 136.67 u/L; LIPASE [4]: 9 u/L; PHOSPHORUS [4]: 10.8 mg/dL; POTASSIUM [4]: 5.21 MEQ/L; SODIUM [4]: 143.2 MEQ/L; TOTAL BILIRUBIN [4]: 0.2 mg/dL; TOTAL PROTEIN [4]: 5.4 G/DL; URIC ACID [4]: 0.73 mg/dL
